Columns and labels:
[1] = biological target: T1, human Nav1.7 (Homo sapiens, UniProt Q15858); assay: Nav 1.7 In Vitro PatchXpress (PX) Assay; assay type: cell-based; settings: HEK 293 cells stably transfected with human Nav1.7; PatchXpress whole cell voltage clamp; partially inactivated state (holding potential yielding 20 to 50% inactivation); read-out: hNav1.7 PX IC50
T1 construct: expressed in transfected cells; host or cells: HEK293
Procedure: Nav 1.7 In Vitro PatchXpress (PX) Assay
HEK 293 cells stably transfected with human Nav1.7 were recorded in whole cell voltage clamp mode with the PatchXpress automated electrophysiology system (Molecular Devices, LLC, Sunnyvale, Calif.). Compound effects were measured on a partially inactivated state of the sodium channel. Cells were clamped to a holding potential yielding 20 to 50% inactivation. To elicit sodium current, channels were activated by pulsing to −10 mV for 20 msec. This voltage protocol was repeated at a rate of 0.1 Hz throughout the experiment. A single concentration of test compound was applied to cells for a duration of 3 minutes. Peak sodium current was measured at the end of the compound addition period to determine percent inhibition. Three to five cells were tested per concentration, and IC50 curves were fitted to percent inhibition as a function of concentration.

[2] = biological target: T1, human Nav1.7; assay: Nav 1.7 IWB In Vitro Assay (IonWorks Barracuda); assay type: cell-based; settings: HEK293 cells stably transfected with human Nav 1.7; IonWorks Barracuda population patch-clamp; cells clamped to −20 mV for 4 minutes with compound; 26th pulse; read-out: hNav1.7 IWB IC50
Procedure: Nav 1.7 IWB In Vitro Assay
HEK293 cells stably transfected with human Nav 1.7 were recorded in population patch-clamp mode with the IonWorks© Barracuda (IWB) automated electrophysiology system (Molecular Devices, LLC, Sunnyvale, Calif.). From a holding potential of −110 mV, sodium currents were elicited by a train of 26 depolarizations of 150 ms duration to −20 mV at a frequency of 5 Hz. Cells were then clamped to −20 mV for a period of 4 minutes in the presence of a single concentration of test compound. Following this compound incubation period, cells were clamped to −110 mV for three seconds to recover unbound channels and put through the same 26 pulse voltage protocol as above. Peak inward current during the 26th pulse to −20 mV in the presence of compound was divided by the peak inward current evoked by the 26th pulse to −20 mV in the absence of compound to determine percent inhibition. Concentration-response curves of percent inhibition as a function of concentration were generated to calculate IC50 values.

T1 sequence (Q15858 whole entry): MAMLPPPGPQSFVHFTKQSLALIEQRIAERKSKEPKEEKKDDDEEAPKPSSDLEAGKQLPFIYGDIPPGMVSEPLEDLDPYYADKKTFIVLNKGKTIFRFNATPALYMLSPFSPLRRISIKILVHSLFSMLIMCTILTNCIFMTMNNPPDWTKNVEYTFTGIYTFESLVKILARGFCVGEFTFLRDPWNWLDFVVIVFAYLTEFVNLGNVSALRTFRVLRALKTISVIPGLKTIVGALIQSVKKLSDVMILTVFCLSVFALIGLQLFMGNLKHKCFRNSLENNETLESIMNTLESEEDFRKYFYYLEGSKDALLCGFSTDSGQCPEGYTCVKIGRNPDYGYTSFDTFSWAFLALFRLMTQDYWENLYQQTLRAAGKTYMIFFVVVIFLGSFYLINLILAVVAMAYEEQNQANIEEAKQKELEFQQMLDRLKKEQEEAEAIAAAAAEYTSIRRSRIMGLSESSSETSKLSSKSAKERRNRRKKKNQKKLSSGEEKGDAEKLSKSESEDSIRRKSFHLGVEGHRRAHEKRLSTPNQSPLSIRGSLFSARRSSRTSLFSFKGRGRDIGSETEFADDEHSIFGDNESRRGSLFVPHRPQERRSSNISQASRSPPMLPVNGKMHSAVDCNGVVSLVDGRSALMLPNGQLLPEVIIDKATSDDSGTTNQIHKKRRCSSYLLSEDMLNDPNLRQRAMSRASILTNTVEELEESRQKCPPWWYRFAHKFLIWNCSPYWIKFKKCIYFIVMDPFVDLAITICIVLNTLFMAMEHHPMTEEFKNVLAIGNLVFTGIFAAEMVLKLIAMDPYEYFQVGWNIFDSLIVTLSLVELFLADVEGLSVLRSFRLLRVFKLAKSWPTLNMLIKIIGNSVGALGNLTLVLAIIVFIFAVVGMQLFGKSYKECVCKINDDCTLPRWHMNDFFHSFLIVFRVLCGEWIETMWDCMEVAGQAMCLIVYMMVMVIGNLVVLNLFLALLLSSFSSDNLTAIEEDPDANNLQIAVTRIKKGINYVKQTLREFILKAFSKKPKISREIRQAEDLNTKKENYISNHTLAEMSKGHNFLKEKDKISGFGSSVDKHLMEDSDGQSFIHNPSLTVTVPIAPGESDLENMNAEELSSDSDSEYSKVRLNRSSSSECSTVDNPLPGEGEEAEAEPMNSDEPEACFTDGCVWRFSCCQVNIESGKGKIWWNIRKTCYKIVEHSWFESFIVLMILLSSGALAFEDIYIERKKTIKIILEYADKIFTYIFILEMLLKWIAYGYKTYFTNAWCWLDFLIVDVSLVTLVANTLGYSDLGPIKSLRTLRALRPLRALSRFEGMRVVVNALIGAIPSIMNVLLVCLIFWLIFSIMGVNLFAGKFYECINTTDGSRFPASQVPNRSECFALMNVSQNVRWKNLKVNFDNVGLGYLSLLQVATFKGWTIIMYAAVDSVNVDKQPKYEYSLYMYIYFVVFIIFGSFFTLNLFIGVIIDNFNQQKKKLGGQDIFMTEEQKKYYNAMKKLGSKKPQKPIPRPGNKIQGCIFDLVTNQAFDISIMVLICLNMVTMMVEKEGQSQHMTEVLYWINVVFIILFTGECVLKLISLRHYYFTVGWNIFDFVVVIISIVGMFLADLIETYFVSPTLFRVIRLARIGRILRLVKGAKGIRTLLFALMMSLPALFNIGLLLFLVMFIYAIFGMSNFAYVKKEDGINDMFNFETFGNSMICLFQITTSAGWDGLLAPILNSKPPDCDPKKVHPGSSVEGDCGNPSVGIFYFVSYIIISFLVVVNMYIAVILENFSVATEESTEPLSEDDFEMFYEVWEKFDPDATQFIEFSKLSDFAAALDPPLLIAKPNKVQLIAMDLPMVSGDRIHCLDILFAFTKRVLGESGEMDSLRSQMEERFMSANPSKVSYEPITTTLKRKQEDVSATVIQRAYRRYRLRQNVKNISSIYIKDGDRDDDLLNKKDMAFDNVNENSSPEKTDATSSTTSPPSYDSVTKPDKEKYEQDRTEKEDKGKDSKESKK

Row | Structure (SMILES) | IC50 [1] | IC50 [2]
1 | COc1cc(-c2cc(F)cc(F)c2)c(F)cc1-n1c2c(ccc1=O)CN(S(=O)(=O)Nc1ncon1)CC2 (racemic) [Example 17-(Rac), (Rac)-N-1,2,4-oxadiazol-3-yl-2-oxo-1-(2,3′,5′-trifluoro-5-methoxy-4-biphenylyl)-1,5,7,8-tetrahydro-1,6-naphthyridine-6(2H)-sulfonamide] | 1120 nM | 191 nM
2 | COc1cc(-c2ccc(F)c(F)c2)c(F)cc1-n1c2c(ccc1=O)CN(S(=O)(=O)Nc1ncccn1)CC2 (racemic) [Example 28-(Rac), (Rac)-2-oxo-N-2-pyrimidinyl-1-(2,3′,4′-trifluoro-5-methoxy-4-biphenylyl)-1,5,7,8-tetrahydro-1,6-naphthyridine-6(2H)-sulfonamide] | 1680 nM | 199 nM
3 | COc1cc(-c2ccc(F)c(C)c2)c(F)cc1-n1c2c(ccc1=O)CN(S(=O)(=O)Nc1ncccn1)CC2 (racemic) [Example 29-(Rac), (Rac)-1-(2,4′-difluoro-5-methoxy-3′-methyl-4-biphenylyl)-2-oxo-N-2-pyrimidinyl-1,5,7,8-tetrahydro-1,6-naphthyridine-6(2H)-sulfonamide] | 1170 nM | 122 nM
4 | COc1cc(-c2ccc(Cl)c(C)c2)c(F)cc1-n1c2c(ccc1=O)CN(S(=O)(=O)Nc1ncccn1)CC2 (racemic) [Example 30, (Rac)-1-(4′-chloro-2-fluoro-5-methoxy-3′-methyl-4-biphenylyl)-2-oxo-N-2-pyrimidinyl-1,5,7,8-tetrahydro-1,6-naphthyridine-6(2H)-sulfonamide] | 993 nM | 44.3 nM
5 | COc1nc(-c2cc(F)cc(Cl)c2)c(F)cc1-n1c2c(ccc1=O)CN(S(=O)(=O)Nc1ccon1)CC2 (racemic) [Example 36, (Rac)-1-(6-(3-chloro-5-fluorophenyl)-5-fluoro-2-methoxy-3-pyridinyl)-N-3-isoxazolyl-2-oxo-1,5,7,8-tetrahydro-1,6-naphthyridine-6(2H)-sulfonamide] | 423 nM | 173 nM
6 | COc1cc(-c2ccc(Cl)c(C)c2)c(F)cc1-n1c2c(ccc1=O)CN(S(=O)(=O)Nc1cc(C)ncn1)CC2 (racemic) [Example 40, (Rac)-1-(4′-chloro-2-fluoro-5-methoxy-3′-methyl-4-biphenylyl)-N-(6-methyl-4-pyrimidinyl)-2-oxo-1,5,7,8-tetrahydro-1,6-naphthyridine-6(2H)-sulfonamide] | 204 nM | 42.3 nM
7 | COc1cc(-c2cccc(C(F)(F)F)c2)c(Cl)cc1-n1c2c(ccc1=O)CN(S(=O)(=O)Nc1cccnn1)CC2 (racemic) [Example 91-(Rac), (Rac)-1-(2-chloro-5-methoxy-3′-(trifluoromethyl)-[1,1′-biphenyl]-4-yl)-2-oxo-N-(pyridazin-3-yl)-1,2,7,8-tetrahydro-1,6-naphthyridine-6(5H)-sulfonamide] | 29.9 nM | 11.2 nM
8 | COc1cc(-c2ccc(F)c(C)c2)c(Cl)cc1-n1c2c(ccc1=O)CN(S(=O)(=O)Nc1cccnn1)CC2 (racemic) [Example 92-(Rac), (Rac)-1-(2-chloro-4′-fluoro-5-methoxy-3′-methyl-[1,1′-biphenyl]-4-yl)-2-oxo-N-(pyridazin-3-yl)-1,2,7,8-tetrahydro-1,6-naphthyridine-6(5H)-sulfonamide] | 63.5 nM | 23.6 nM
9 | COc1cc(-c2cc(F)cc(F)c2)c(F)cc1-n1c2c(ccc1=O)[C@@H](C)N(S(=O)(=O)Nc1ccon1)CC2 (single isomer, unassigned) [Example 3-A-M] | > 1000 nM | 2800 nM
10 | COc1cc(-c2cc(F)cc(F)c2)c(F)cc1-n1c2c(ccc1=O)CN(S(=O)(=O)Nc1ccon1)[C@@H](C)C2 (single isomer, unassigned) [Example 3-C-M] | > 1000 nM | 8520 nM
11 | COc1cc(-c2cc(F)cc(F)c2)c(F)cc1-n1c2c(ccc1=O)CN(S(=O)(=O)Nc1ccon1)[C@@H](C)C2 (single isomer, unassigned) [Example 3-C-P] | > 1000 nM | > 30000 nM
12 | COc1cc(-c2cc(F)cc(Cl)c2)ccc1-n1c2c(ccc1=O)CN(S(=O)(=O)Nc1cccnn1)CC2 (single isomer, unassigned) [Example 8-P, P-1-(3′-chloro-5′-fluoro-3-methoxy-4-biphenylyl)-2-oxo-N-3-pyridazinyl-1,5,7,8-tetrahydro-1,6-naphthyridine-6(2H)-sulfonamide] | 241 nM | 25.9 nM
13 | COc1cc(-c2cc(Cl)ccc2C)c(F)cc1-n1c2c(ccc1=O)CN(S(=O)(=O)Nc1ccon1)CC2 (single isomer, unassigned) [Example 9-M, M-1-(5′-chloro-2-fluoro-5-methoxy-2′-methyl-4-biphenylyl)-N-3-isoxazolyl-2-oxo-1,5,7,8-tetrahydro-1,6-naphthyridine-6(2H)-sulfonamide] | 772 nM | 55 nM
14 | COc1cc(-c2cc(F)cc(F)c2)c(F)cc1-n1c2c(ccc1=O)CN(S(=O)(=O)Nc1ncc(F)cn1)CC2 (single isomer, unassigned) [Example 10-M, M-N-(5-fluoro-2-pyrimidinyl)-2-oxo-1-(2,3′,5′-trifluoro-5-methoxy-4-biphenylyl)-1,5,7,8-tetrahydro-1,6-naphthyridine-6(2H)-sulfonamide] | 612 nM | 102 nM
15 | COc1cc(-c2cc(F)cc(F)c2)c(F)cc1-n1c2c(ccc1=O)CN(S(=O)(=O)Nc1ncc(F)cn1)CC2 (single isomer, unassigned) [Example 10-P, P-N-(5-fluoro-2-pyrimidinyl)-2-oxo-1-(2,3′,5′-trifluoro-5-methoxy-4-biphenylyl)-1,5,7,8-tetrahydro-1,6-naphthyridine-6(2H)-sulfonamide] | 644 nM | 52.9 nM
16 | COc1cc(-c2cc(F)cc(Cl)c2)c(F)cc1-n1c2c(ccc1=O)CN(S(=O)(=O)Nc1ccccn1)CC2 (single isomer, unassigned) [Example 11-M, M-1-(3′-chloro-2,5′-difluoro-5-methoxy-4-biphenylyl)-2-oxo-N-2-pyridinyl-1,5,7,8-tetrahydro-1,6-naphthyridine-6(2H)-sulfonamide] | 4500 nM | 849 nM
17 | COc1cc(-c2cc(F)cc(Cl)c2)c(F)cc1-n1c2c(ccc1=O)CN(S(=O)(=O)Nc1cccc(F)n1)CC2 (single isomer, unassigned) [Example 13-M, M-1-(3′-chloro-2,5′-difluoro-5-methoxy-4-biphenylyl)-N-(6-fluoro-2-pyridinyl)-2-oxo-1,5,7,8-tetrahydro-1,6-naphthyridine-6(2H)-sulfonamide] | 7550 nM | 983 nM
18 | COc1cc(-c2cc(F)cc(F)c2)c(F)cc1-n1c2c(ccc1=O)CN(S(=O)(=O)Nc1ncon1)CC2 (single isomer, unassigned) [Example 17-M, M-N-1,2,4-oxadiazol-3-yl-2-oxo-1-(2,3′,5′-trifluoro-5-methoxy-4-biphenylyl)-1,5,7,8-tetrahydro-1,6-naphthyridine-6(2H)-sulfonamide] | 292 nM | 34.3 nM
19 | COc1cc(-c2cc(F)cc(Cl)c2)c(F)cc1-n1c2c(ccc1=O)CN(S(=O)(=O)Nc1ccon1)CC2 (single isomer, unassigned) [Example 18-M, M-1-(3′-chloro-2,5′-difluoro-5-methoxy-4-biphenylyl)-N-3-isoxazolyl-2-oxo-1,5,7,8-tetrahydro-1,6-naphthyridine-6(2H)-sulfonamide] | 3560 nM | 567 nM
20 | COc1cc(-c2cccc(OC(F)F)c2)c(F)cc1-n1c2c(ccc1=O)CN(S(=O)(=O)Nc1ccon1)CC2 (single isomer, unassigned) [Example 19-M, M-1-(3′-(difluoromethoxy)-2-fluoro-5-methoxy-4-biphenylyl)-N-3-isoxazolyl-2-oxo-1,5,7,8-tetrahydro-1,6-naphthyridine-6(2H)-sulfonamide] | 17100 nM | 1940 nM
21 | COc1cc(-c2ccc(F)c(F)c2)c(F)cc1-n1c2c(ccc1=O)CN(S(=O)(=O)Nc1ccon1)CC2 (single isomer, unassigned) [Example 20-M, M-N-3-isoxazolyl-2-oxo-1-(2,3′,4′-trifluoro-5-methoxy-4-biphenylyl)-1,5,7,8-tetrahydro-1,6-naphthyridine-6(2H)-sulfonamide] | > 30000 nM | 2670 nM
22 | COc1cc(-c2ccc(C)c(F)c2)c(F)cc1-n1c2c(ccc1=O)CN(S(=O)(=O)Nc1ccon1)CC2 (single isomer, unassigned) [Example 21-M, M-1-(2,3′-difluoro-5-methoxy-4′-methyl-4-biphenylyl)-N-3-isoxazolyl-2-oxo-1,5,7,8-tetrahydro-1,6-naphthyridine-6(2H)-sulfonamide] | 4940 nM | 1550 nM

— patent publication US10472356B2, “Bicyclic ketone sulfonamide compounds” (AMGEN INC., priority 2015, dated 2019)
